# In ChEMBL document CHEMBL3046683, “Anti-inflammatory and analgesic activities of a new cucurbitacin isolated from Citrullus colocynthis seeds” (2013):
# Legend:
# [1] = test system: Mus musculus; assay: Analgesic activity in Swiss albino Mus musculus (mouse) assessed as inhibition of phenylbenzoquinone-induced writhing at 200 mg/kg, sc administered 30 min prior to acetic acid challenge measured for 30 min post phenylbenzoquinone challenge relative to control; type: functional; settings: route subcutaneous
# [2] = test system: Mus musculus; assay: Analgesic activity in Swiss albino Mus musculus (mouse) assessed as inhibition of acetic acid-induced writhing at 200 mg/kg, sc administered 30 min prior to acetic acid challenge measured for 30 min post acetic acid challenge relative to control; type: functional; settings: route subcutaneous
# [3] = test system: Mus musculus; assay: Analgesic activity in Swiss albino Mus musculus (mouse) assessed as inhibition of phenylbenzoquinone-induced writhing at 0.5 mg/kg, sc administered 30 min prior to acetic acid challenge measured for 30 min post phenylbenzoquinone challenge relative to control; type: functional; settings: route subcutaneous
# [4] = test system: Rattus norvegicus; assay: Anti-inflammatory activity in Wistar Rattus norvegicus (rat) assessed as inhibition of carrageenan-induced paw edema at 0.1 mg/kg, ip administered 30 min prior to carrageenan-challenge measured at 1 hr by plethysmometric analysis relative to control; type: functional; settings: route intraperitoneal
# [5] = test system: Rattus norvegicus; assay: Anti-inflammatory activity in Wistar Rattus norvegicus (rat) assessed as inhibition of carrageenan-induced paw edema at 0.5 mg/kg, ip administered 30 min prior to carrageenan-challenge measured at 5 hr by plethysmometric analysis relative to control; type: functional; settings: route intraperitoneal
# [6] = test system: Mus musculus; assay: Analgesic activity in Swiss albino Mus musculus (mouse) assessed as inhibition of acetic acid-induced writhing at 0.1 mg/kg, sc administered 30 min prior to acetic acid challenge measured for 30 min post acetic acid challenge relative to control; type: functional; settings: route subcutaneous
# [7] = test system: Mus musculus; assay: Analgesic activity in Swiss albino Mus musculus (mouse) assessed as inhibition of acetic acid-induced writhing at 0.5 mg/kg, sc administered 30 min prior to acetic acid challenge measured for 30 min post acetic acid challenge relative to control; type: functional; settings: route subcutaneous
# [8] = test system: Rattus norvegicus; assay: Anti-inflammatory activity in Wistar Rattus norvegicus (rat) assessed as inhibition of carrageenan-induced paw edema at 0.5 mg/kg, ip administered 30 min prior to carrageenan-challenge measured at 1 hr by plethysmometric analysis relative to control; type: functional; settings: route intraperitoneal
# [9] = test system: Mus musculus; assay: Analgesic activity in sc dosed Swiss albino Mus musculus (mouse) assessed as inhibition of phenylbenzoquinone-induced writhing administered 30 min prior to acetic acid challenge measured for 30 min post phenylbenzoquinone challenge relative to control; type: functional, organism-based
# [10] = test system: Rattus norvegicus; assay: Anti-inflammatory activity in Wistar Rattus norvegicus (rat) assessed as inhibition of carrageenan-induced paw edema at 0.5 mg/kg, ip administered 30 min prior to carrageenan-challenge measured at 4 hr by plethysmometric analysis relative to control; type: functional; settings: route intraperitoneal
# [11] = test system: Rattus norvegicus; assay: Anti-inflammatory activity in Wistar Rattus norvegicus (rat) assessed as inhibition of carrageenan-induced paw edema at 0.1 mg/kg, ip administered 30 min prior to carrageenan-challenge measured at 5 hr by plethysmometric analysis relative to control; type: functional; settings: route intraperitoneal
# [12] = test system: Mus musculus; assay: Analgesic activity in Swiss albino Mus musculus (mouse) assessed as inhibition of acetic acid-induced writhing at 0.05 mg/kg, sc administered 30 min prior to acetic acid challenge measured for 30 min post acetic acid challenge relative to control; type: functional; settings: route subcutaneous
# [13] = test system: Mus musculus; assay: Analgesic activity in Swiss albino Mus musculus (mouse) assessed as inhibition of phenylbenzoquinone-induced writhing at 0.1 mg/kg, sc administered 30 min prior to acetic acid challenge measured for 30 min post phenylbenzoquinone challenge relative to control; type: functional; settings: route subcutaneous
# [14] = test system: Mus musculus; assay: Analgesic activity in sc dosed Swiss albino Mus musculus (mouse) assessed as inhibition of acetic acid-induced writhing administered 30 min prior to acetic acid challenge measured for 30 min post acetic acid challenge relative to control; type: functional, organism-based
# [15] = test system: Rattus norvegicus; assay: Anti-inflammatory activity in Wistar Rattus norvegicus (rat) assessed as inhibition of carrageenan-induced paw edema at 0.5 mg/kg, ip administered 30 min prior to carrageenan-challenge measured at 6 hr by plethysmometric analysis relative to control; type: functional; settings: route intraperitoneal
# [16] = test system: Rattus norvegicus; assay: Anti-inflammatory activity in Wistar Rattus norvegicus (rat) assessed as inhibition of carrageenan-induced paw edema at 0.5 mg/kg, ip administered 30 min prior to carrageenan-challenge measured at 3 hr by plethysmometric analysis relative to control; type: functional; settings: route intraperitoneal
# [17] = test system: Mus musculus; assay: Analgesic activity in Swiss albino Mus musculus (mouse) assessed as inhibition of phenylbenzoquinone-induced writhing at 0.05 mg/kg, sc administered 30 min prior to acetic acid challenge measured for 30 min post phenylbenzoquinone challenge relative to control; type: functional; settings: route subcutaneous
# [18] = test system: Rattus norvegicus; assay: Anti-inflammatory activity in Wistar Rattus norvegicus (rat) assessed as inhibition of carrageenan-induced paw edema at 0.1 mg/kg, ip administered 30 min prior to carrageenan-challenge measured at 3 hr by plethysmometric analysis relative to control; type: functional; settings: route intraperitoneal
# [19] = test system: Rattus norvegicus; assay: Anti-inflammatory activity in Wistar Rattus norvegicus (rat) assessed as inhibition of carrageenan-induced paw edema at 0.1 mg/kg, ip administered 30 min prior to carrageenan-challenge measured at 6 hr by plethysmometric analysis relative to control; type: functional; settings: route intraperitoneal
# [20] = test system: Rattus norvegicus; assay: Anti-inflammatory activity in ip dosed Wistar Rattus norvegicus (rat) assessed as inhibition of carrageenan-induced paw edema administered 30 min prior to carrageenan-challenge measured at 1 to 6 hr by plethysmometric analysis relative to control; type: functional, organism-based
# [21] = test system: Rattus norvegicus; assay: Anti-inflammatory activity in Wistar Rattus norvegicus (rat) assessed as inhibition of carrageenan-induced paw edema at 0.1 mg/kg, ip administered 30 min prior to carrageenan-challenge measured at 4 hr by plethysmometric analysis relative to control; type: functional; settings: route intraperitoneal
# [22] = test system: Rattus norvegicus; assay: Anti-inflammatory activity in Wistar Rattus norvegicus (rat) assessed as inhibition of carrageenan-induced paw edema at 0.1 mg/kg, ip administered 30 min prior to carrageenan-challenge measured at 2 hr by plethysmometric analysis relative to control; type: functional; settings: route intraperitoneal
# [23] = test system: Rattus norvegicus; assay: Anti-inflammatory activity in Wistar Rattus norvegicus (rat) assessed as inhibition of carrageenan-induced paw edema at 0.5 mg/kg, ip administered 30 min prior to carrageenan-challenge measured at 2 hr by plethysmometric analysis relative to control; type: functional; settings: route intraperitoneal
# [24] = test system: Rattus norvegicus; assay: Anti-inflammatory activity in Wistar Rattus norvegicus (rat) assessed as inhibition of carrageenan-induced paw edema at 1 mg/kg, ip administered 30 min prior to carrageenan-challenge measured at 3 hr by plethysmometric analysis relative to control; type: functional; settings: route intraperitoneal
# [25] = test system: Rattus norvegicus; assay: Anti-inflammatory activity in Wistar Rattus norvegicus (rat) assessed as inhibition of carrageenan-induced paw edema at 1 mg/kg, ip administered 30 min prior to carrageenan-challenge measured at 2 hr by plethysmometric analysis relative to control; type: functional; settings: route intraperitoneal
# [26] = test system: Rattus norvegicus; assay: Anti-inflammatory activity in Wistar Rattus norvegicus (rat) assessed as inhibition of carrageenan-induced paw edema at 1 mg/kg, ip administered 30 min prior to carrageenan-challenge measured at 4 hr by plethysmometric analysis relative to control; type: functional; settings: route intraperitoneal
# [27] = test system: Rattus norvegicus; assay: Anti-inflammatory activity in Wistar Rattus norvegicus (rat) assessed as inhibition of carrageenan-induced paw edema at 1 mg/kg, ip administered 30 min prior to carrageenan-challenge measured at 5 hr by plethysmometric analysis relative to control; type: functional; settings: route intraperitoneal
# [28] = test system: Rattus norvegicus; assay: Anti-inflammatory activity in Wistar Rattus norvegicus (rat) assessed as inhibition of carrageenan-induced paw edema at 1 mg/kg, ip administered 30 min prior to carrageenan-challenge measured at 1 hr by plethysmometric analysis relative to control; type: functional; settings: route intraperitoneal
# [29] = test system: Rattus norvegicus; assay: Anti-inflammatory activity in Wistar Rattus norvegicus (rat) assessed as inhibition of carrageenan-induced paw edema at 1 mg/kg, ip administered 30 min prior to carrageenan-challenge measured at 6 hr by plethysmometric analysis relative to control; type: functional; settings: route intraperitoneal
structure (smiles),measurement,setting,value
CC(=O)Oc1ccccc1C(=O)O,inhibition in vivo at 200 mg/kg,[1],60%
same,inhibition in vivo at 200 mg/kg,[2],62%
CC(C)(O)/C=C/C(=O)[C@](C)(O)[C@H]1[C@H](O)C[C@@]2(C)[C@@H]3CC=C4[C@@H](C=C(O[C@@H]5O[C@H](CO)[C@@H](O)[C@H](O)[C@H]5O)C(=O)C4(C)C)[C@]3(C)CC[C@]12C,inhibition in vivo at 0.5 mg/kg,[3],89%
same,inhibition in vivo at 0.1 mg/kg,[4],12%
same,inhibition in vivo at 0.5 mg/kg,[5],84%
same,inhibition in vivo at 0.1 mg/kg,[6],88%
same,inhibition in vivo at 0.5 mg/kg,[7],92%
same,inhibition in vivo at 0.5 mg/kg,[8],38%
same,inhibition,[9],Dose-dependent effect
same,inhibition in vivo at 0.5 mg/kg,[10],80%
same,inhibition in vivo at 0.1 mg/kg,[11],72%
same,inhibition in vivo at 0.05 mg/kg,[12],86%
same,inhibition in vivo at 0.1 mg/kg,[13],84%
same,inhibition,[14],Dose-dependent effect
same,inhibition in vivo at 0.5 mg/kg,[15],84%
same,inhibition in vivo at 0.5 mg/kg,[16],58%
same,inhibition in vivo at 0.05 mg/kg,[17],80%
same,inhibition in vivo at 0.1 mg/kg,[18],40%
same,inhibition in vivo at 0.1 mg/kg,[19],73%
same,inhibition,[20],Dose-dependent effect
same,inhibition in vivo at 0.1 mg/kg,[21],60%
same,inhibition in vivo at 0.1 mg/kg,[22],13%
same,inhibition in vivo at 0.5 mg/kg,[23],40%
C[C@@H]1C[C@H]2[C@@H]3CCC4=CC(=O)C=C[C@]4(C)[C@@]3(F)[C@@H](O)C[C@]2(C)[C@@]1(O)C(=O)CO [DEXAMETHASONE],inhibition in vivo at 1 mg/kg,[24],45%
same,inhibition in vivo at 1 mg/kg,[25],33%
same,inhibition in vivo at 1 mg/kg,[26],71%
same,inhibition in vivo at 1 mg/kg,[27],87%
same,inhibition in vivo at 1 mg/kg,[28],29%
same,inhibition in vivo at 1 mg/kg,[29],89%
